Source: patent US20250281465A1, “MOLECULES THAT ENHANCE EXTRACELLULAR VESICLE RELEASE” (priority 2022, published 2025)

Legend:
C57BL/6 mice = test: In vivo adjuvanticity with ovalbumin as model antigen; parameters: species or system mouse; conditions: OVA 20 μg + compound 200 nmol i.m. days 0 and 21, day 28
Procedure: FIGS. 1A-1D. Intracellular Ca^2+ influx screening of 84 HTS hit candidate compounds. (A) THP-1 cells were loaded with the ratiometric Ca^2+ indicator, Fura-2, and treated with lonomycin (ION, 1 μM), Thapsigargin (1 μM), or 84 hit candidate compounds (10 μM) for 25 minutes. Data are presented as the area under the curve (AUG) of OD340/380 ratios corresponding to the intracellular Ca^2+ kinetics. The baseline-subtracted AUG was calculated using GraphPad Prism (GraphPad Software, San Diego, CA). (B) Ca^2+ mobilization by compound #634. mBMDCs were loaded with the ratiometric Ca^2+ indicator, Fura-8, and treated with ION (1 μM), or #634 (2 and 10 μM) for 25 minutes. The dashed line indicates the timing of compounds added. […] OVA-specific IgGI and IgG2c levels in sera were determined by ELISA. **p<0.01, ***p<0.001, ns (not significant) by KruskalWallis tests with Dunn's post hoc test vs. Veh. […]
Eighty-four hit candidate compounds were also screened for in vivo adjuvant activities using C57BL/6 mice and model antigen ovalbumin (OVA). […] Sera were collected on day 28, and OVA-specific immunoglobulins IgG1 and IgG2c were determined by ELISA (FIG. 1D).
The selected 80 compounds were first evaluated for purity and identity by HPLC-MS and compounds which were less than 90% pure were purified by Prep-HPLC. These were then evaluated for vaccine adjuvant activity in mice using a model antigen, ovalbumin (OVA). […]

[1] = system: CD63-Tluc-CD9-EmGFP THP-1 reporter cells; test: CD63 Tluc-CD9 EmGFP THP-1 reporter cell assay (EV/exosome release); format: cell-based, human; conditions: 48 hours incubation
Procedure: All these analogs were evaluated for induction of IL-12 cytokine at 10 μM, followed by dose response IL-12 induction for selected analogs. These analogs were also evaluated for exosome release by quantitating EV release in the supernatant post 48 hours incubation with CD63-Tluc-CD9-EmGFP THP-1 reporter cells.
In the HTS using CD63-Tluc-CD9EmGFP reporter cells (CD63 HTS), PMA (10 ng/ml) was used as a positive control (Shpigelman et al., 2021) and 0.5% DMSO was used as negative control (vehicle, Veh). Briefly, the harvested cells were resuspended in assay media containing 10% exosome-depleted […] (#A2720801, Thermo Fisher Scientific) and plated at 2×10^5 cells/mL (50 μL/well of 384-well plates) (#3674, Corning). Test compounds were added at a final concentration of 10 μM to cells and incubated for 48 hours at 37° C. Subsequently, the plate was centrifuged, supernatant (25 μL) was transferred, and chemiluminescent was measured as recombinant luciferase activity (RLU) after 10 minutes incubation with TurboLuc assay reagent (TurboLuc™ One-Step Glow Assay kit, Thermo Fisher Scientific). The response that measures activation and subsequent release of EVs was calculated using the following formula; % response=100×(compound RLU−average Veh RLU)/(average PMA RLU−average Veh RLU). The viability of cells was assessed using PrestoBlue reagent (Thermo Fisher Scientific). Briefly, PrestoBlue reagent (2.5 μl) was added to the remaining cells and incubated for 30 minutes at room temperature, followed by fluorescence readout at (Ex 560 nm/Em 590 nm) which was normalized to fluorescence data of the Veh wells within the plate to obtain “% viability” calculated as 100×(compound fluorescence/average Veh fluorescence).
CD63 Tluc-CD9 EmGFP THP-1 reporter cell assay. CD63 Tluc CD9 EmGFP THP-1 reporter cell (designated as CD63 Tluc reporter cells) were incubated with 10 μM test compounds, ION (1 μM), or 0.5% DMSO (negative control) in the RPMI 1640 supplemented with exosome-depleted FBS at 5×10^4 cells in 200 μL/well for a 96-well plate for 48 hours at 37° C. Subsequently, the plate was centrifuged, the supernatant was transferred, and chemiluminescence was measured by TurboLuc™ Luciferase One-Step Glow Assay Kit. The response that measures activation and subsequent release of EVs was calculated using the following formula; % response=100×(compound RLU−average Veh RLU)/(average PMA RLU−average Veh RLU).

CCOC(=O)c1c(NS(=O)(=O)c2cccc3c2N=S=N3)sc(C)c1C [#634, ethyl 2-(benzo[c][1,2,5]thiadiazole-4-sulfonamido)-4,5-dimethylthiophene-3-carboxylate]
Anti-OVA IgG1 level in sera (C57BL/6 mice): appeared to be higher than the levels from animals immunized without adjuvant, although there were no significant differences | Anti-OVA IgG2c level in sera (C57BL/6 mice): appeared to be higher than the levels from animals immunized without adjuvant, although there were no significant differences | exosome (EV) release in CD63 reporter THP-1 cells [1]: enhanced exosome release
